Experimental data reported in ChEMBL document CHEMBL1201862, “PubChem BioAssay data set” (2004).
Active and inactive are the calls of the source. Cut-off read from the data, not from the text of the source, for most assays here: actives have a measured IC50 and inactives only a lower limit.

Tests used:
Type in all cases: functional
Genome polyprotein = Genome polyprotein (dengue virus type 2, UniProt P29990); experiment: Dengue-2 NS5 methyltransferase inhibitors, primary screen, biochemical, confirmation dose response (AID 588689)
Caspase-3 = target: T1, Caspase-3 (Homo sapiens, UniProt P42574);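 note: Dose-response selectivity test against caspase-3 for candidate inhibitors of sentrin-specific proteases (SENPs)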
T1 sequence (P42574 whole entry): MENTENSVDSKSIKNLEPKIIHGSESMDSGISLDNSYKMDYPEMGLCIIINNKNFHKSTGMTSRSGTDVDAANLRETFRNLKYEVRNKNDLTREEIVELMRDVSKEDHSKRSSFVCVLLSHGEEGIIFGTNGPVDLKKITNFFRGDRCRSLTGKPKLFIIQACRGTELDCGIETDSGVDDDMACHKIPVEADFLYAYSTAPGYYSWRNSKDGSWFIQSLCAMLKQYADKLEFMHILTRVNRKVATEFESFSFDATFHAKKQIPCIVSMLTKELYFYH

[1] = target: T2, Sentrin-specific protease 8 (Homo sapiens, UniProt Q96LD8);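 note: luminescence read-out of SENP8 inhibition, dose-response confirmation following an ultra-high-throughput screen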
T2 sequence (Q96LD8 whole entry): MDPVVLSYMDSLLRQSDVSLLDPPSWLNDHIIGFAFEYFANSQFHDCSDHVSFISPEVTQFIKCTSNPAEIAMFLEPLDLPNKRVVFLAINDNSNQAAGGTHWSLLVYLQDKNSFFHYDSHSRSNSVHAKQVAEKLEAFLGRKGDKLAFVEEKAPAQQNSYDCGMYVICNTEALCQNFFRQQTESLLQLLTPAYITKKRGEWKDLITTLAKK

Hexokinase HKDC1 = target: T3, Hexokinase HKDC1 (Homo sapiens, UniProt Q2TB90); experiment: HKDC1 hexokinase inhibitors, dose response, biochemical, W721R variant (AID 504729)
T3 sequence (Q2TB90 whole entry): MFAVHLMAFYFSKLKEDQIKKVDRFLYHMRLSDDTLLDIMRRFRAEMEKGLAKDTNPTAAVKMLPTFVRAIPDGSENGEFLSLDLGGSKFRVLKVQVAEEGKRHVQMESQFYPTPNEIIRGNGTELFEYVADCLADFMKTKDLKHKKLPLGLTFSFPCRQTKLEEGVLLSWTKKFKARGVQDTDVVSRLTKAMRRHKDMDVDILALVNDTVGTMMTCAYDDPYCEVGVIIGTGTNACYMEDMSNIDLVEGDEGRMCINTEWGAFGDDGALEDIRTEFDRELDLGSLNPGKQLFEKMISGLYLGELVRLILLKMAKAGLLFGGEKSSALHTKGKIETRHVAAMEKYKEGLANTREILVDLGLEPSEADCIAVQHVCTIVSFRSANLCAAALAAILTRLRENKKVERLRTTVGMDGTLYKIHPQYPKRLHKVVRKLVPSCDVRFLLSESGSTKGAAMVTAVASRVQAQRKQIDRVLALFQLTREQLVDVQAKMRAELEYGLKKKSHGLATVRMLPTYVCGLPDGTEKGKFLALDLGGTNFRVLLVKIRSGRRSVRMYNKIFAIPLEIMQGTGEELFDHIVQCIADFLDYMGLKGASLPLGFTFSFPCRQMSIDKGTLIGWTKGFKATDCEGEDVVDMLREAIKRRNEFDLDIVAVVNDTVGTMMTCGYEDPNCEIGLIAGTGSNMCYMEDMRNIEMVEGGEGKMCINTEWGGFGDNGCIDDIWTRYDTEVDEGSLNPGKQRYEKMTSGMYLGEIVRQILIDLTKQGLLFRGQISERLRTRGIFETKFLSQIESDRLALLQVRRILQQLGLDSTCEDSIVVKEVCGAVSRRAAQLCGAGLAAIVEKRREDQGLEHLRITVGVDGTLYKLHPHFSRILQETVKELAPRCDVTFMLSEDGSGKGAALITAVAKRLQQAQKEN

[2] = target: T4, Apoptotic protease-activating factor 1 (Homo sapiens, UniProt O14727)
T4 sequence (O14727 whole entry): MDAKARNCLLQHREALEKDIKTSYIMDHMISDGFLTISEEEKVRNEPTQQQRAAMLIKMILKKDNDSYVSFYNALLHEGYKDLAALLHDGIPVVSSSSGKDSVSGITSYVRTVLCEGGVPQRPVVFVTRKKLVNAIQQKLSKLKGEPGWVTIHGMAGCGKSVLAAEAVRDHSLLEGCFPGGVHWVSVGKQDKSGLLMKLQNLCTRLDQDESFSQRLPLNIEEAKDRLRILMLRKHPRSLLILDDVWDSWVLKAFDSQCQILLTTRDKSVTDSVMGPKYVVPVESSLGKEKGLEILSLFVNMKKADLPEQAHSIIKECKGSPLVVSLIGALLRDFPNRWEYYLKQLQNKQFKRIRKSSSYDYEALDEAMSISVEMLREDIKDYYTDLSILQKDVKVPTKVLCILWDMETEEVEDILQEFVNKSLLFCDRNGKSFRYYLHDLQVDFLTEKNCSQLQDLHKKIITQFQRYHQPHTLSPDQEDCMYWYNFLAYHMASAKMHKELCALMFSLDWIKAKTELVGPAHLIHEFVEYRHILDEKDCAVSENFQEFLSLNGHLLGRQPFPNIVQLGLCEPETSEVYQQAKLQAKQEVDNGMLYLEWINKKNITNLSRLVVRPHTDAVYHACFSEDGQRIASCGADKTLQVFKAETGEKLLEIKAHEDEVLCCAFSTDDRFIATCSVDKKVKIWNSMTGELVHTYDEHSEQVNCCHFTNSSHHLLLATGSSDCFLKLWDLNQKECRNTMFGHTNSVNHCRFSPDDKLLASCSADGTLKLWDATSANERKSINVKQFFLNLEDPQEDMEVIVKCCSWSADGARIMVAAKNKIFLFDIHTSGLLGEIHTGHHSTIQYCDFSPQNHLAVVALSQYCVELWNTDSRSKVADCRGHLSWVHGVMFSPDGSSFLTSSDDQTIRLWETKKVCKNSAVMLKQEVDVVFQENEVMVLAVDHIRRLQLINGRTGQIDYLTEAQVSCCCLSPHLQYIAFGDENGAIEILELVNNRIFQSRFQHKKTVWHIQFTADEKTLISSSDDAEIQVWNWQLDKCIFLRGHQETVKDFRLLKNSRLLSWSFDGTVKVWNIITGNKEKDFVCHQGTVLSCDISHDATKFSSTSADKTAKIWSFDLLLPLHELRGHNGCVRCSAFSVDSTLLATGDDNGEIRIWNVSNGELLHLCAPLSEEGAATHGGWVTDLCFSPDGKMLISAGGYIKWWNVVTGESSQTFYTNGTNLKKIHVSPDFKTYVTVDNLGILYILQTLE

Chain of Genome polyprotein (P29990 2492-3391 limits assumed): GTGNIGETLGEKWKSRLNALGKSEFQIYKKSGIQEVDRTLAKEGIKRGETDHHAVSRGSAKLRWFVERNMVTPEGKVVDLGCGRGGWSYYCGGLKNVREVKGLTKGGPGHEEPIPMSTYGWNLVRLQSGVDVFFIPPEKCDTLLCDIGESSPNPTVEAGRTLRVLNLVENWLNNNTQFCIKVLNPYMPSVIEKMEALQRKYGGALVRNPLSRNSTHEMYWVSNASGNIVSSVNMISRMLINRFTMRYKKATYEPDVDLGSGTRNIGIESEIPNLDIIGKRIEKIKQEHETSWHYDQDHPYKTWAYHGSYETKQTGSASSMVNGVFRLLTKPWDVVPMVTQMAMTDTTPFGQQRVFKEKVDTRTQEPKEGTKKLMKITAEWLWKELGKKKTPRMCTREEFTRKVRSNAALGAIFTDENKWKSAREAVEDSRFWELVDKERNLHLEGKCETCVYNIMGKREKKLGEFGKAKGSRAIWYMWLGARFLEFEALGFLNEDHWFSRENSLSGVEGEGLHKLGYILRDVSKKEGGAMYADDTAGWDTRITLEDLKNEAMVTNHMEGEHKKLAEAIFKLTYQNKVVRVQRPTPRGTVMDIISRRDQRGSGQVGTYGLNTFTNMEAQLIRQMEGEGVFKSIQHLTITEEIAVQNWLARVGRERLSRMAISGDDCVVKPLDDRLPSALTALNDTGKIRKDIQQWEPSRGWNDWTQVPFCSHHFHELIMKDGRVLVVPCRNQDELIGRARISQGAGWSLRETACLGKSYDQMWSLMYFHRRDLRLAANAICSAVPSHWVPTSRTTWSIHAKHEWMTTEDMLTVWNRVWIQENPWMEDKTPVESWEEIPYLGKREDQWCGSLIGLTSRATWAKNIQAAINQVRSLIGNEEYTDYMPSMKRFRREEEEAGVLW

| SMILES | IC50 (Genome polyprotein) | IC50 (Caspase-3) | IC50 [1] | IC50 (Hexokinase HKDC1) | IC50 [2] |
| --- | --- | --- | --- | --- | --- |
| CCc1nnc(NS(=O)(=O)c2ccc(NC(=S)NC(=O)/C=C/c3ccc(C(C)C)cc3)cc2)s1 | 50 µM (active) |  |  |  |  |
| O=C(/C=C/c1ccco1)Nc1ccc(Oc2ccccc2)cc1 |  | 20.5 µM (active) | 17.4 µM (active) |  |  |
| COc1ccc(S(=O)(=O)Nc2cc(SCC(=O)O)c(O)c3ccccc23)cc1 | 7.22 µM (active) | 11.2 µM (active) | 9.39 µM (active) | 12 µM (active) | 31.8 µM (active) |
| O=C1C(Nc2ccc(O)cc2)=C/C(=N/S(=O)(=O)c2cccs2)c2ccccc21 |  |  |  | 8.31 µM (active) |  |
| COC(=O)C(O)(c1c(C)[nH]n(-c2ccccc2)c1=O)C(F)(F)F (stereo not given) |  |  |  |  | 14.6 µM (active) |
